Experimental data published in US10723998B2, “Application of ethyl p-methoxycinnamate and derivatives thereof in maintaining self-renewal and pluripotency of stem cells” (NORTHEAST NORMAL UNIVERSITY, priority 2015, dated 2020).

Assays:
[1] = tested on: Oct4 promoter; assay: Oct4 promoter luciferase reporter assay (pGL3-Oct4P-Basic) in P19 cells; type: cell-based, mouse; settings: 5 μg/mL, 12-24 h, DMSO control, FIG. 1
Source text: According to a method described in literature (Yang H M, Do H J, Oh J H, et al. Characterization of putative cis-regulatory elements that control the transcriptional activity of the human Oct4 promoter[J]. Journal of cellular biochemistry, 2005, 96(4):821-830), the promoter of Oct4 gene was picked and cloned into pGL3-Basic, so as to construct pGL3-Oct4P-Basic reporter plasmid. One day before transfection, mouse teratoma cells P19 were inoculated into a 6-well cell culture plate at a density of 2×10^5 cells/well to make the cells grown to about 80% before transfection. […]
Luciferase Reporter Assay System and FluoStar Optima were used to assay the luciferase activity of the transfected cell lysis solution. To 45 μL of the cell lysis solution was added 5 μL of Assay Cocktail reagent, after they were mixed well, 100 μL of Luciferin reaction solution was added, and fluorescence counting in 2 s was measured using FluoStar Optima instrument, which reflected the activity level of the studied plasmid reporter genes expressing firefly luciferase. […] An absorption value at 450 nm was assayed using a microplate reader, which reflected the activity level of internal reference plasmid pCMV-β-gal expressing β-galactosidase. […] The relative luciferase activity of different samples was calculated through the following equation: […]

[2] = tested on: mouse teratoma cells P19; assay: Formation of microspheres of suspendedly cultured stem cells (soft agar, MTT dyeing); type: cell-based; settings: 5 μg/mL, P19 cells on 0.5% soft agar, 7 d, compared with DMSO control; FIG. 4
Procedure: 5 g agar was weighed and placed in a flask, then 100 mL of ultra-pure water was added, and the mixture was mixed well, sealed, and then autoclaved for 30 min. In a super clean bench, 9 mL of pre-heated (50-60° C.) serum-free DMEM culture medium was pipetted into a 10 mL centrifuge tube, then 1 mL of uncooled 5% agar was added, and rapidly mixed well with a pipette, resulting in 0.5% agar. 1 mL of 0.5% agar was pipetted into one well of a 6-well plate and cooled at room temperature for 20-30 min, resulting in a 0.5% soft agar culture medium.
In the super clean bench, D-Hanks was gently added to the surface of the soft agar culture medium, and the D-Hanks was discarded after being gently shaken 2 to 3 times. Cleaning was repeated once. The mouse teratoma cells P19 were gently inoculated on the surface of the soft agar culture medium at a cell density of 4×10^5 cells/well. After the cell inoculation, ethyl p-methoxycinnamate was added to 1 mL of DMEM culture medium containing 10% fetal calf serum, mixed well, and then gently added to the experimental group. A final concentration of ethyl p-methoxycinnamate was 5 μg/mL. The control group was treated with DMSO. […]

CCOC(=O)C=Cc1ccc(OC)cc1 [ethyl p-methoxycinnamate]
effect on the activity of Oct4 promoter (relative luciferase activity) [1]: reached a statistically significant difference (*p<0.05) | formation of microspheres of suspendedly cultured stem cells [2]: the P19 cells can form a higher amount of larger and more typical microspheres
